We go through one molecule from ChEMBL document CHEMBL1121440, “Soft drugs. 2. Soft alkylating compounds as potential antitumor agents” (1980).

Common to all, as to format: functional
What all share (settings): P388, ip, route intraperitoneal

Assay [1] has as its system Mus musculus. Description: Evaluated for % increase in median survival rate against P388 Lymphocytic Leukemia at a dose of 100 mg/kg administered intraperitoneally.
Assay [2] has as its system Mus musculus. Kind of assay: Evaluated for % increase in median survival rate against P388 Lymphocytic Leukemia at a dose of 200 mg/kg administered intraperitoneally.
The subject of assay [3] is Mus musculus. Kind of assay: Evaluated for % increase in median survival rate against P388 Lymphocytic Leukemia at a dose of 400 mg/kg administered intraperitoneally.
Assay [4] deals with Mus musculus. Description: Evaluated for % increase in median survival rate against P388 Lymphocytic Leukemia at a dose of 50 mg/kg administered intraperitoneally.

As for `CCCCCCC(=O)OCCl` [HEPTANOIC ACID CHLOROMETHYL ESTER], the increase in life span (ILS) (in general, the gain in survival time of treated over control animals, in per cent) at 100 mg/kg in the assay with Mus musculus [1] amounted to 120%. For the same molecule, the ILS at 200 mg/kg with Mus musculus [2] came out at 127%. For the same molecule, in the assay with Mus musculus [3], the ILS at 400 mg/kg came to 109%. Further, the ILS at 50 mg/kg with Mus musculus [4] was 107%.
